Series [1] has as its system human tumor histocultures (renal cell carcinoma, NSCLC, bladder and colorectal cancer). Nature of the series: Ex vivo treatment of human tumor histocultures, mRNA expression by real-time quantitative PCR. It is filed as cell-based. The note with it: 0.1, 0.5, and 1 μM, 24 hours; RCC (n=5), NSCLC (n=3), bladder (n=1), colorectal (n=1) histocultures. How it is done: Human tumor specimens from patients were obtained from commercial sources (Bio-Options, Folio, Coversant Bio, and Boston BioSource) and University of Rochester.
Fresh tumor tissues were collected within 1 hour following surgery and placed into AQIX transportation media (AQIX, UK). Tissues were transported overnight at 4° C. to Merck Research Laboratories, Palo Alto, Calif.
The tumors were embedded in UltraPure™ low melting point agarose (Invitrogen, Carlsbad, Calif.) and were cut 400 μm with Mcllwain™ Tissue Chopper (Stoelting Co., Wood Dale, Ill.). The tumor slices were first set on the Millicell-CM cell culture insert (Millipore, Billerica, Calif.) and cultured at the interface between air and medium of 1 ml DMEM supplemented with 4.5 g/L glucose, L-glutamine, sodium pyruvate (Mediatech, Inc., Manassas, Va.), 10% FBS (SAFC Biosciences, Lenexa, Kans.), 100 U/ml penicillin, and 100 ug/ml streptomycin in humidifed incubator at 37° C., 5% CO2.
The tumor slices were cultured in the presence of 0.1, 0.5, and 1 μM C59-08 or 1 μM control ODN 1040 for 24 hours. The tumor samples were snap frozen in dry ice and stored at […] prior to processing.
Total RNA was isolated by homogenization into RNA STAT-60 (Tel-Test, Friendswood, Tex.) using a polytron homogenizer. The total RNA was extracted according to the manufacturer's protocol. After precipitation with isopropanol, total RNA was re-extracted with phenol:chloroform:isoamyl alcohol (25:24:1) (Sigma-Aldrich, St. Louis, Mo.) using phase-lock light tubes.
DNase-treated total RNA was reverse-transcribed using QuantiTect Reverse Transcription (Qiagen, Valencia, Calif.) according to manufacturer's protocol. […] Real-time quantitative PCR on 10 ng of cDNA from each sample was performed using unlabeled primers at 900 nM each with 250 nM of FAM-labeled probe in a TAQMAN™ RTqPCR reaction on the Fluidigm Biomark sequence detection system (Fluidigm, Foster City, Calif.). Levels of ubiquitin were measured in a separate reaction and were used to normalize the data by the Δ-Δ Ct method. […]

For series [2], the system named is Human peripheral blood mononuclear cells (PBMCs). Nature of the series: Induction of IFNα2a and IL-10 in human PBMCs (48 hours, Meso Scale Discovery kits). It is filed as cell-based. How it is done: Human peripheral blood mononuclear cells (PBMCs) were isolated from buffy coats from two donors with Ficoll-Paque™ PLUS (GE Healthcare Bio-Sciences, Pittsburgh, Pa.) using standard Ficoll separation methods. Isolated PBMCs were washed twice in phosphate buffered saline (PBS) containing 2% fetal bovine serum (FBS), and 2 mM ethylenediaminetetraacetic acid (EDTA). The cells were resuspended and cultured in 96-well U-bottom plates at 1×10^6 cells per well in RPMI 1640 containing 10% FBS, 2 mM L-glutamine, 100 U/mL pencillin and 100 μg/mL streptomycin. The cells were cultured in the presence of C59-08 at doses ranging from 0.016 μM to 5 μM or 7 μM control ODN 1040 in a humidifed incubator at 37° C., 5% CO2 in final volume of 0.2 mL for 48 hours. Supernatants were harvested and assayed for IFNα2a and IL-10 using Meso Scale Discovery human IFNα2a and human IL-10 tissue culture kits (Rockville, Md.).

The subject of the next series is TC-1 tumors. Nature of the series: Anti-tumor activity in mouse TC-1 bilateral tumor model. It is filed as in vivo. The conditions noted are these: antibody 10 mg/kg IP. The source says: Approximately seven to eight week old female C57BL/6J mice were obtained from Jackson Laboratory (Sacramento, Calif.). Conventional animal chow and water were provided ad libitum. Animals were housed for one week prior to the start of the study. The average weight of the animals at the start of the study (i.e. tumor implantation) was 19 grams.
The TC-1 cell line, provided by Johns Hopkins University (Baltimore, Md.) is derived from mouse primary lung epithelial cells that were cotransformed with human papilloma virus (HPV-16) E6 and E7 and c-Ha.ras oncogene (Lin K Y et al. Cancer Res. 1996 Jan. 1, 56(1):21-6). TC-1 cells are syngeneic to C57BL6/J strain.
The TC-1 cells were cultured in DMEM supplemented with 10% fetal bovine serum and 0.4 mg/mL Geneticin. Sub-confluent TC-1 cells were injected subcutaneously (SC) in 0.1 mL of serum-free DMEM in both lower dorsal flanks (1×10^5 in right flank and 0.5×10^5 in left flank) of each animal. Animals were first shaved with electronic clippers in the areas that were used for the implantation.
Tumors were measured the day before the first dose and twice a week thereafter. Tumor length and width were measured using electronic calipers and tumor volume determined using the formula Volume (mm^3)=0.5×Length×[…] where length is the longer dimension. Animals were weighed the day before the first dose and twice a week thereafter. […]

The mark [3] stands for this setting: 2 donors, 0.016 μM to 5 μM, supernatant.

Strand notation (5' to 3'): a small letter for the sugar, then the base; units joined by * are phosphorothioate-linked, units joined directly phosphodiester-linked; [ ] holds rarer units or linkages, { } end groups; capitals alone tell only the bases. d = 2'-deoxy (DNA)

Turning to “5′-TCGAACGTTCGAACGTTCGAACGTTCGAAT-3′ (DNA dT*dC*dG*dA*dA*dC*dG*dT*dT*dC*dG*dA*dA*dC*dG*dT*dT*dC*dG*dA*dA*dC*dG*dT*dT*dC*dG*dA*dA*dT) [Compound C59-08, oligodeoxynucleotide with a phosphorothioate backbone and 5′OH and 3′OH; CpG class C type TLR9 agonist]”, in series [1], the “mRNA expression of IFNα-inducible genes (IFNα2, MCP1, MCP2, OAS2, IP-10, GBP1, ISG-54, MxB, and TRAIL)” value is “induced”; the “mRNA expression of cytokines (IFNβ, IL-10, IL-12, IL-6, and TNFα)” value is given as “induced”; the “mRNA expression of immune activation markers (CD80, CD86, CD40, CD70 and OX40L)” value was “induced”. Moreover, in series [2], the “optimal concentration for IFNα2a and IL-10 production” value was 0.2 µM. Further, in series [2] (setting [3]), the IFNα2a production result was “induces” and the IL-10 production result was “induces”. Also, the “Complete regressions (CRs) of non-injected tumors” value in the series on TC-1 tumors (left flank tumor, ODN IT only in right tumors on Days 0, 4, 8, 12) is “did not result in CRs”. Also, the “Complete regressions (CRs) of injected tumors” value in the series with TC-1 tumors (right flank tumor, ODN IT (C59-08 2.5 mg/kg, CpG 1826 1 mg/kg) on Days 0, 4, 8, 12) is “did not result in CRs”.

(Values after US20180161427A1, “COMBINATION OF AN ANTI-IL-10 ANTIBODY AND A CPG-C TYPE OLIGONUCLEOTIDE FOR TREATING CANCER” (MERCK SHARP & DOHME CORP., priority 2015, published 2018).)
